System: HBV replication in AML12HBV10 cells
Test: Antiviral efficacy: HBV DNA in AML12HBV10 cell lysates by dot-blot hybridization
Assay type: cell-based
Settings: Hepatitis B virus, AML12HBV10, 48 h, read-out: Antiviral activity (EC50), AML12HBV10 cells, 48 hours treatment, concentration that reduces the amount of HBV DNA by 50%
Procedure: The antiviral efficacy of the compounds of the disclosure, as presented in Table 2, were determined in AML12HBV10 cells. AML12HBV10 is an immortalized murine hepatocyte (AML12)-derived stable cell line that supports robust HBV replication in a tetracycline inducible manner (Xu et al.). The cells were seeded into 96 well plates at a density of 2×10^4 cells per well and cultured in DMEM/F12 media with 10% fetal bovine serum in the absence of tetracycline to allow pgRNA transcription and HBV DNA replication. One day after seeding, cells were left untreated or treated with a serial dilution of testing compounds, ranging from 50 μM to 0.39 μM, for 48 hours. Cells were then lysed by adding into each well of 100 μl lysis buffer containing 10 mM Tris-HCl (pH 7.6), 1 mM EDTA, 100 mM NaCl and 1% NP-40 and incubated at 37° C. for 30 minutes. Half amount (50 μλ) of cell lysate from each well was combined with equal volume of denaturing solution containing 0.5N NaOH and 1.5M NaCl. After 5 minute incubation, 100 μl of neutralization solution (1M Tris-HCl, pH 7.4, 1.5M NaCl) was added into each well. The denatured cell lysates (totally 200 μl) were applied onto Nylon membrane using 96-well dot-blot manifold (Biorad). HBV DNA in the cell lysates were determined by dot-blot hybridization with alpha-^32P-UTP-labelled riboprobe specific for HBV minus strand DNA. The antiviral efficacy of a compound of the disclosure was expressed as the concentration that reduces the amount of HBV DNA by 50% (EC50).

Structure (SMILES)	EC50 [nM]
COC(=O)[C@@H]1CC(F)(F)CN1CC1CNc2ccccc2N1C(=O)Nc1ccc(F)c(Cl)c1 (some centres unmarked) [Entry 100]	1110
O=C(Nc1ccc(F)c(Cl)c1)N1c2ccccc2NCC1CN1CCC2(CC1)OCCO2 (centres unmarked) [Entry 103]	≥ 10000
CS(=O)(=O)N1CCN(CC2CNc3ccccc3N2C(=O)Nc2ccc(F)c(Cl)c2)CC1 (centres unmarked) [Entry 104]	≥ 10000
CCOC(=O)C1=C(F)CCN(CC2CNc3ccccc3N2C(=O)Nc2ccc(F)c(Cl)c2)C1 (centres unmarked) [Entry 105]	≥ 10000
CCOC(=O)C1CN(CC2CNc3ccccc3N2C(=O)Nc2ccc(F)c(Cl)c2)CCC1(F)F (centres unmarked) [Entry 106]	7680
O=C(O)C1CCCN(CC2CNc3ccccc3N2C(=O)Nc2ccc(F)c(Cl)c2)C1 (centres unmarked) [Entry 107]	≥ 10000
O=C(Nc1ccc(F)c(Cl)c1)N1c2ccccc2NCC1CN1CCC(F)(F)C(CO)C1 (centres unmarked) [Entry 108]	2170
O=C(Nc1ccc(F)c(Cl)c1)N1c2ccccc2NCC1CN1CCS(=O)(=O)CC1 (centres unmarked) [Entry 110]	2000
O=C(Nc1cc(F)c(F)c(F)c1)N1CCN(C(=O)Nc2ccc(F)c(Cl)c2)c2ccccc21 [Entry 111]	500
O=C(Nc1ccc(F)c(Cl)c1)N1CCN(C(=O)Nc2cc(Cl)c(F)cc2F)c2ccccc21 [Entry 112]	290
O=C(O)C1CN(CC2CNc3ccccc3N2C(=O)Nc2ccc(F)c(Cl)c2)CC(F)(F)C1 (centres unmarked) [Entry 113]	450
Cc1cc(NC(=O)N2CCNc3ccccc32)ccc1F [Entry 116]	240
N#Cc1cc(NC(=O)N2CCNc3ccccc32)ccc1F [Entry 119]	520
O=C1CCN(C(=O)Nc2ccc(F)c(C(F)(F)F)c2)C2CCCCC12 (centres unmarked) [Entry 120]	1090
O=C(Nc1ccc(F)c(C(F)(F)F)c1)N1CCNc2ccccc21 [Entry 122]	320
O=C(Nc1ccc(F)c(C(F)F)c1)N1CCNc2ccccc21 [Entry 125]	190
O=C1CCN(C(=O)Nc2cccc(Cl)c2)C2CCCCC12 (centres unmarked) [Entry 126]	200

Source: patent US20210371388A1, “Bicyclic Carboxamide with Exocyclic Urea Derivatives as Antivirals for the Treatment of HBV Infection” (Baruch S. Blumberg Institute, priority 2020, published 2021)
